Measurements: US20160256560A1, “Environmentally Sensitive Compositions” (priority 2010, published 2016)
Several values for one entry are separate records, joined by “and”; a condition that tells them apart may be missing. Equal entries are not always repeated. Where two headings read alike, the source gives them in different places. *1 amine or outer side, *2 acyl side, *3 side chain or, on linkers, in order; H or OH if unused. Where a SMILES comes first, the peptide text is derived from it. Bridges are numbered along the chain shown (N, C = ends). Where no end group is shown, it is not given here. [ ]: non-standard residue; d: D form. ξ: configuration not given here. X3 = CN(C)c1ccc2c(c1)Oc1cc(N(C)C)ccc1C2=C1C=CC(=NC(=S)NC[C@](C)(O)C[C@H](N[*:1])C(=O)[*:2])C=C1C(=O)O; X2 = CCCCCCCC/C=C\CCCCCCCC(=O)OC[C@](C)(O)C[C@H](N[*:1])C(=O)[*:2]; Trp(2-yl) = O=C([C@H](Cc1c([*:3])[nH]c2ccccc12)N[*:1])[*:2]; ξTrp(2-yl) = O=C(C(Cc1c([*:3])[nH]c2ccccc12)N[*:1])[*:2]; X1 = CC(O)(CO)CC(N[*:1])C(=O)[*:2]; cisHyp = O=C(O)[C@@H]1C[C@H](O)CN1; ξAsp(3ξ-OH) = NC(C(=O)O)C(O)C(=O)O; Hyp = O=C(O)[CH]1C[CH](O)CN1

Tests used:
[1] = pH 5.5
HeLa cells [2] = assay type: cell-based, human; settings: for antiproliferative effect at either pH: pH 6
actin filaments = settings: read-out: Kd, binding to actin filaments; cited from earlier work
[3] = not given; remark: listed apart in the source
tumor = test: Animal studies of variants: tumor/organ fluorescence 4 and 24 h post-injection; settings: after 24 hours
[4] = Stopped-flow fluorescence and CD kinetics of insertion/folding and exit/unfolding; assay type: physicochemical
tumors = system: tumors; design: species or system nude mice; settings: mouse, in vivo
HeLa cells [5] = system: HeLa cells
HeLa-GFP cells = test: Cellular uptake of nanogold (silver enhancement, image analysis); assay type: cell-based, human; settings: 1 h
HeLa tumors = settings: mouse, in vivo
[6] = system: luciferase pre-mRNA aberrant splice sites in HeLa cells; assay type: cell-based, human

CC[C@H](C)[C@H](NC(=O)[C@@H]1CCCN1C(=O)[C@H](CC(N)=O)NC(=O)[C@H](CCC(N)=O)NC(=O)[C@H](CCC(=O)O)NC(=O)[C@H](C)NC(=O)[C@H](C)N)C(=O)N[C@@H](Cc1ccc(O)cc1)C(=O)N[C@@H](Cc1c[nH]c2ccccc12)C(=O)N[C@@H](C)C(=O)N[C@@H](CCCNC(=N)N)C(=O)N[C@@H](Cc1ccc(O)cc1)C(=O)N[C@@H](C)C(=O)N[C@@H](CCC(=O)O)C(=O)N[C@@H](Cc1c[nH]c2ccccc12)C(=O)N[C@@H](CC(C)C)C(=O)N[C@@H](Cc1ccccc1)C(=O)N[C@H](C(=O)N[C@H](C(=O)N1CCC[C@H]1C(=O)N[C@@H](CC(C)C)C(=O)N[C@@H](CC(C)C)C(=O)N[C@@H](CC(C)C)C(=O)N[C@@H](CC(C)C)C(=O)N[C@@H](CC(=O)O)C(=O)N[C@@H](CC(C)C)C(=O)N[C@@H](C)C(=O)N[C@@H](CC(C)C)C(=O)N[C@@H](CC(C)C)C(=O)N[C@H](C(=O)N[C@@H](CC(=O)O)C(=O)N[C@@H](C)C(=O)N[C@@H](CC(=O)O)C(=O)N[C@@H](CCC(=O)O)C(=O)NCC(=O)N[C@H](C(=O)N[C@@H](CS)C(=O)NCC(=O)O)[C@@H](C)O)C(C)C)[C@@H](C)O)[C@@H](C)O [D14E]
pH 8 Solubility: Y

CC[C@H](C)[C@H](NC(=O)[C@@H]1CCCN1C(=O)[C@H](CC(N)=O)NC(=O)[C@H](CCC(N)=O)NC(=O)[C@H](CCC(=O)O)NC(=O)[C@H](C)NC(=O)[C@H](C)N)C(=O)N[C@@H](Cc1ccc(O)cc1)C(=O)N[C@@H](Cc1c[nH]c2ccccc12)C(=O)N[C@@H](C)C(=O)N[C@@H](CCCNC(=N)N)C(=O)N[C@@H](Cc1ccc(O)cc1)C(=O)N[C@@H](C)C(=O)N[C@@H](CC(=O)O)C(=O)N[C@@H](Cc1c[nH]c2ccccc12)C(=O)N[C@@H](CC(C)C)C(=O)N[C@@H](Cc1ccccc1)C(=O)N[C@H](C(=O)N[C@H](C(=O)N1CCC[C@H]1C(=O)N[C@@H](CC(C)C)C(=O)N[C@@H](CC(C)C)C(=O)N[C@@H](CC(C)C)C(=O)N[C@@H](CC(C)C)C(=O)N[C@@H](C)C(=O)N[C@@H](CC(C)C)C(=O)N[C@@H](C)C(=O)N[C@@H](CC(C)C)C(=O)N[C@@H](CC(C)C)C(=O)N[C@H](C(=O)N[C@@H](CC(=O)O)C(=O)N[C@@H](C)C(=O)N[C@@H](CC(=O)O)C(=O)N[C@@H](CCC(=O)O)C(=O)NCC(=O)N[C@H](C(=O)N[C@@H](CS)C(=O)NCC(=O)O)[C@@H](C)O)C(C)C)[C@@H](C)O)[C@@H](C)O [D25A]
pH 8 Solubility: N

CC1NC(=O)C2CC(O)CN2C(=O)C2CSc3[nH]c4ccccc4c3CC(NC1=O)C(=O)NC(CC(C)(O)CO)C(=O)NC(C(C)C)C(=O)NC(C(O)C(=O)O)C(=O)N2 (stereo not drawn) [phallacidin, reference compound] (cyclo([ξAsp(3ξ-OH)]C[Hyp]A[ξTrp(2-yl)][X1]V); thioether 2-5; configuration not given here)
Log P (octanol-water partition coefficient) [1]: −1.6 | antiproliferative effect at either pH (HeLa cells [2]): does not demonstrate an antiproliferative effect at either pH

C[C@@H]1NC(=O)[C@H](C[C@@](C)(O)CNC(=S)N=C2C=CC(=C3c4ccc(N(C)C)cc4Oc4cc(N(C)C)ccc43)C(C(=O)O)=C2)NC(=O)[C@@H]2Cc3c([nH]c4ccccc34)SC[C@H](NC(=O)[C@@H]([C@H](C)O)NC1=O)C(=O)N1C[C@@H](O)C[C@H]1C(=O)N[C@@H](C)C(=O)N2 [phalloidin-TRITC] (cyclo(A[dT]C[cisHyp]A[Trp(2-yl)][X3]); thioether 3-6)
Kd (actin filaments): 40 nM

CCCCCCCC/C=C\CCCCCCCC(=O)OC[C@](C)(O)C[C@@H]1NC(=O)[C@@H]2Cc3c([nH]c4ccccc34)SC[C@H](NC(=O)[C@@H]([C@H](C)O)NC(=O)[C@H](C)NC1=O)C(=O)N1C[C@@H](O)C[C@H]1C(=O)N[C@@H](C)C(=O)N2 [phalloidin-oleate] (cyclo(A[dT]C[cisHyp]A[Trp(2-yl)][X2]); thioether 3-6)
Log P [1]: +1.7 | inhibition of Hela cell proliferation rate (HeLa cells [2]; 1 µM): 60% | inhibition of Hela cell proliferation rate (HeLa cells [2]; 2 µM): 70% | inhibition of Hela cell proliferation rate (HeLa cells [2]; 4 µM): 95%

AAEQNPIYWARYADWLFTTALLLLDLALLVDADEGT [P20A]
Findings: solubility / aggregation ([3]; pH 8): Aggregates

AAEQNPIYWARYADWLFTTPLLLLDLALLVDADEGTCG [WT-Cys1]
pKa (physchem): 6.14

AAEQNPIYWARYAEWLFTTPLLLLELALLVDADEGTCG [D14/25E]
pH 8 Solubility: N

ACDDQNPWRAYLDLLFPTDTLLLDLLW [Var3-3D]
retention in kidney (tumor): also retained in the kidney after 24 hours

ACEEQNPWARYLEWLFPTETLLLEL [Cys-Short-3E]
retention in kidney (tumor): also retained in the kidney after 24 hours

ACEQNPIYWARYAKWLFTTPLLLLKLALLVDADEGTG [K-pHLIP]
pH 8 Solubility: Y/N

ACEQNPIYWARYANWLFTTPLLLLNLALLVDADEGTG [N-pHLIP]
pH 8 Solubility: Y

AEDQNDPI YWARYADWLFTTPLLLLELALLV EC--G-T-COOH [pHLIP-2E]
λmax, maximum position of fluorescence spectrum [3]: 339.2 nm | λmax, maximum position of fluorescence spectrum ([3]; pH 8): 351.2 nm and 341.3 nm | A, frequency factor, first transition ([4]; pH 8): 1.2 × 10^5 | Ea, first transition ([4]; pH 8): 6.0 kcal/mol | k1, rate constant ([4]; pH 8): 0.20/5.00 s^−1 and 0.28/3.57 s^−1 and 0.34/2.94 s^−1 and 0.39/2.56 s^−1 | t1, characteristic time ([4]; pH 8): 0.20/5.00 s and 0.28/3.57 s and 0.34/2.94 s and 0.39/2.56 s

AEDQNPYWARYADWLFTTPLLLLDLALLVDCG [Fast1-Cys]
pKa (physchem): 6.1

AEQNPI YFARYADELFTTPLLLLDLALLW DADET-COOH [pHLIP-W3]
characteristic time, first component, exit ([4]; pH 3.6): 0.06 s (14.9 s^−1) | characteristic time, second component, exit ([4]; pH 3.6): 0.35 s (2.88 s^−1) | rate constant, first component, exit ([4]; pH 3.6): 0.06 s (14.9 s^−1) | rate constant, second component, exit ([4]; pH 3.6): 0.35 s (2.88 s^−1)

AEQNPIYWARYADWLFTTPL [Short-Cys]
pKa (physchem): 4.4

Ac-AAEQNPIYWARYADWLFTTPLLLLDLALLVDADEGTKCG [pHLIP-KC]
pKa (physchem): 6.16 | pH 8 Solubility: Y

DDDEDNPIYWARYADWLFTTPLLLLHGALLVDADECT [2H3 or D3a]
pH 8 Solubility: Y

DDDEDNPIYWARYAHWLFTTPLLLLDGALLVDADECT [D3b]
pH 8 Solubility: Y

DDDEDNPIYWARYAHWLFTTPLLLLHGALLVDADECT [2H2 or D2]
pH 8 Solubility: Y

DDDEDNPIYWARYAHWLFTTPLLLLHGALLVNADECT [D1]
pH 8 Solubility: Y

DDDEDNPIYWARYAHWLFTTPLLLLHGALLVNANECT [D0 or H2N2]
pH 8 Solubility: Y

DDDEDNPIYWARYAHWLFTTPLLLLHGALLVNANECT [D0]
pH 8 Solubility: Y

GGEQNPIYWAQDYAWLFTTPLLLLDLALLVDADEGTCG [R11Q; D14UpUp]
pH 8 Solubility: Y

GGEQNPIYWAQYDAWLFTTPLLLLDLALLVDADEGTCG [R11Q; D14Up]
pH 8 Solubility: Y

GGEQNPIYWARYADWLFTTPLLLDLLALLVDADEGTCG [D25Up]
pH 8 Solubility: N

GGEQNPIYWARYADWLFTTPLLLLDLALLVDADEGT [WT-1]
pKa (physchem): 6

GGEQNPIYWARYADWLFTTPLLLLDLALLVDADEGTCG [WT-Cys3]
pH 8 Solubility: Y

GGEQNPIYWARYADWLFTTPLLLLDLALLVNANQGT [NNQ]
pH 8 Solubility: Y

GGEQNPIYWARYADWLFTTPLLLLLDALLVDADEGTCG [D25Down]
pH 8 Solubility: N

GGEQNPIYWARYDAWLFTTPLLLLDLALLVDADEGTCG [D14Up]
pH 8 Solubility: Y

Gadolinium-tetraazacyclododecanetetraacetic acid [Gd-DOTA control]
% T1 Change (3 hrs) (tumors): 5.27% and −3.05% | % T1 Change (24 hrs) (tumors): 10.7% and 5.02% | T1 3 hrs (tumors): 920.4 ms and 879.2 ms | T1 24 hrs (tumors): 967.6 ms and 952.4 ms

Phallacidin-(CH2)n—SH, n=4 [phallC4SH]
Log P (octanol-water partition coefficient) [1]: −0.74

Phallacidin-(CH2)n—SH, n=6 [phallC6SH]
antiproliferative effect at either pH (HeLa cells [2]): does not demonstrate an antiproliferative effect at either pH

Phallacidin-(CH2)n—SH, n=10 [phallC10SH]
Log P (octanol-water partition coefficient) [1]: +1.28

aminophalloidin [reference compound]
inhibitory effect on HeLa proliferation (HeLa cells [5]): no inhibitory effect | inhibitory effect on M4A4 proliferation (M4A4 cells): no inhibitory effect

gold-pHLIP: 1.4 nm monomaleimido Nanogold conjugated to N-terminal Cys of pHLIP (ACEQNPIYWARYADWLFTTPLLLLDLALLVDADET) (AC(1.4 nm monomaleimido Nanogold)EQNPIYWARYADWLFTTPLLLLDLALLVDADET)
cellular uptake at pH6.5 versus pH7.4 (times higher) (HeLa-GFP cells; 2 μM): 1.6 | uptake of gold versus unmodified gold nanoparticles (times) (HeLa-GFP cells; pH6.5, 2 μM): 6.4 | uptake of gold versus unmodified gold nanoparticles (times) (HeLa-GFP cells; pH7.4, 2 μM): 3 | tumor/muscle ratio (HeLa tumors): 5.6 | gold in tumor versus gold nanoparticles alone (times) (HeLa tumors; iv): 6

pHLIP-S—S-CCTCTTACCTCAGTTACA (all peptide nucleic acid (PNA); pHLIP peptide disulfide-linked to the PNA, end not given here) [pHLIP-PNA construct]
luciferase activity localized to tumor sites [6]: significantly higher luciferase activity | uptake by cells in vivo compared to other constructs [6]: Significantly greater amounts

pHLIP-S—S—(CH2)6-phallacidin [pHLIP-C6phall]
cell death (HeLa cells [2]): about 60% | antiproliferative effect at neutral pH (HeLa cells [2]; pH 7.4): no effect is observed

phallacidin-(CH2)10NH2 [phallC10]
Log P (octanol-water partition coefficient) [1]: +1.28
